In assay [1] the test system is SOD mutant mice. Description: Survival in the SOD mutant mouse model of ALS. In kind it is in vivo. Here is the method:
The present study investigates the effects of SPM 927 to protect or to reduce impairments observed in this ALS model. For this purpose behavioral measurements and EMGs are performed in SOD-G93A mice overexpressing mutant human Cu, Zn SOD.
(§1) The transgenic mouse strain used for this study is G1H (Gurney et al., 1994). The animals begin to show signs of posterior limb weakness at around 3 months of age and die at 4 months.
(§2) 40 mice are included in the study and divided into 4 groups of 10 mice. • a SOD vehicle group • a SOD treated group (SPM 927 3 mg/kg) • a SOD treated group (SPM 927 10 mg/kg) • a SOD treated group (SPM 927 30 mg/kg)
(§3) Animals were weighed every day. The general status of the mice was checked daily, especially for the presence of tremor, for skin aspect and for muscle wasting. EMG testing was performed once every week, starting on D70 of age until the death of the animals. The survival rate and the interval from symptom onset until death were recorded.
The animals were treated from day 60 (before the beginning of the clinical signs) until the animal's death. The treatment was administered twice daily intraperitoneally.
A global analysis of the data was made using one factor or repeated measures analysis of variance (ANOVA). […]

The subject of assay [2] is SOD mutant mice. As to the kind of experiment: Rotarod test in SOD mutant mice. Type of assay: in vivo, mouse. The note with it: twice daily intraperitoneally from day 60. Here is the method:
as §1, §2
(§4) • Rotarod test: this test evaluates the ability of the animal to stay on a rotating dowel allowing evaluation of motor coordination and proprioceptive sensitivity. The apparatus is a 3 cm diameter automated rod which turns at 12 rounds per minute (Bioseb, Paris, France). The rotarod test measures how long the mouse can maintain itself on the axle without falling. The test is stopped after an arbitrary limit of 120 s. Should the animal fall down before 120 s, the performance is recorded and two additional trials are performed. The mean time of 3 trials is calculated. […] The number of times the mice put their paws through the grid is counted and serves as a measure for motor coordination. • Hanging test: this test evaluates the ability of the animal to hang on a wire. […] The time needed by the animal to catch the string with its hindpaws is recorded (60 s maximum) during three consecutive trials. […]
For orientation: The rotarod test checks motor coordination on a turning rod.

Assay [3] relates to SOD mutant mice. Description: Grid test in SOD mutant mice. Type of assay: in vivo, mouse. Here is the method: as §1, §2, §4
The subject of assay [4] is SOD mutant mice. Description: Hanging test in SOD mutant mice. Type of assay: in vivo, mouse. As to conditions: twice daily intraperitoneally from day 60. The method, then: as §1, §2, §4
The subject of assay [5] is SOD mutant mice. As to the kind of experiment: Electromyographic recordings (compound muscle action potential) in SOD mutant mice. Type of assay: in vivo, mouse. Here is the method:
as §1, §2, §3
Electromyographic recordings were performed using a Neuromatic 2000M electromyography apparatus. During EMG the mice are anesthetized (60 mg kg-1, Imalgène®). The measured parameters are the amplitude and the latency of the compound muscle action potential (CMAP). CMAP is measured in gastrocnemius muscle after stimulation of the sciatic nerve. A reference electrode is inserted near the Achilles tendon and an active needle placed at the base of the tail. A ground needle is inserted on the lower back of the mouse. […] The amplitude (mV) and the latency of the response (ms) are measured. […]

[6] abbreviates: twice daily intraperitoneally from day 60, dose not given.

“Also recorded” adds a separate entry of the source.

This is an account of results in US7718161B2, “Method for treating a motoneuron disorder” (UCB Pharma GmbH, priority 2004, dated 2010).

Take “(R)-2-acetamide-N-benzyl-3-methoxypropionamide [SPM 927]”: the “life-span of SOD mutant mice” value in assay [1] (FIG. 1, 3, 10, 30 mg/kg twice daily intraperitoneally from day 60 until death) is given as “dose dependently prolongs life-span”. The “survival time after onset of symptoms” value in assay [1] (chronic treatment twice daily intraperitoneally from day 60, G1H SOD-G93A mice) is recorded as “prolongs survival time after symptom onset; also recorded: prolongs survival time after onset of symptoms”. The “motor symptoms in the rotarod test” value in assay [2] is given as “alleviates motor symptoms”. In assay [3] (FIG. 2, 30 mg/kg, twice daily intraperitoneally), the “motor impairment (grid performance)” value was “attenuates motor impairment”. The “motor symptoms in the grid test” value in assay [3] (setting [6]) is recorded as “alleviates motor symptoms”. The “motor symptoms in the hanging test” value in assay [4] was “alleviates motor symptoms”. The “motor impairment (latency of compound muscle action potential)” value in assay [5] (FIG. 3, 10 mg/kg, twice daily intraperitoneally) is recorded as “attenuates motor impairment”. Further, the EMG abnormalities entry in assay [5] (setting [6]) is “attenuates motor symptoms including abnormalities in electrophysiological recordings (EMG)”.
